Values after ≈ are worked out from the molar mass of the structure shown.

One may read the EC50 as the midpoint of the concentration-response curve.

The test system of the test is Zymoseptoria tritici. Nature of the test: Fungicidal activity screen in amended agar, 96 well plates. To be noted: 168 h, 1% potato dextrose agar amended to 20, 2, 0.2 and 0.02 ppm, 10,000 spores/mL, 18° C., assessed after 7 days, read-out: Zymoseptoria (EC50 ranking of fungal growth vs DMSO controls). It is filed as cell-based. The protocol: Compounds were screened in 96 well plates with 10 compounds per plate. Each compound was screened using agar amended to 20, 2, 0.2 and 0.02 ppm of the test material. Proline at 50 and 10 ppm and 0.2% DMSO were used respectively as positive and negative controls. Each test concentration and standard were tested twice on a plate.
Compounds were screened against Zymoseptoria tritici. The agar used in the test was 1% potato dextrose agar. Sufficient spores were added to the appropriate agar to give 10,000 spores/mL agar.
A ×10 stock solution in 2% DMSO was produced for each dose i.e. 200, 20, 2 and 0.2 ppm, and 10 μl of this added to the appropriate wells on the plate. An equivalent amount of 2% DMSO and Proline stock at 500 and 100 ppm were added for the controls. To each well, 90 μl of the appropriate agar spore suspension was added to give the final well concentrations outlined in the first paragraph.
Plates were incubated at room temperature (18° C.) and assessed after 7 days.
The amount of fungal growth in each well was compared to the DMSO controls and scored according to the following key: • A—EC50<2 ppm • B—2≤EC50<20 • C—EC50≥20 • D—No activity detected at the highest dose tested • NT—Not tested
Consider `COc1ccnc2c(=O)n(-c3ccc4nc(Sc5ccc(F)cc5)ccc4c3)c(=S)oc12` [Example 37, 3-(2-((4-fluorophenyl)thio)quinolin-6-yl)-8-methoxy-2-thioxo-2,3-dihydro-4H-pyrido[2,3-e][1,3]oxazin-4-one], for which the EC50 was less than 2 µg/mL.
Consider `COc1ccnc(C(=O)Nc2ccc3nc(OC(C)C)ccc3c2)c1O` [Example 5, 3-hydroxy-N-(2-isopropoxyquinolin-6-yl)-4-methoxypicolinamide], for which the EC50 was less than 2 µg/mL.
Turning to `COc1ccnc(C(=O)Nc2ccc3cc(Cc4ccccc4)ccc3n2)c1O` [Example 14, N-(6-benzylquinolin-2-yl)-3-hydroxy-4-methoxypicolinamide], the EC50 is not below 20 µg/mL.
As to `CCC(C)Oc1ccc2cc(NC(=O)c3nccc(OC)c3O)ccc2n1` (stereo not shown) [Example 11, N-(2-(sec-butoxy)quinolin-6-yl)-3-hydroxy-4-methoxypicolinamide], the 50% effective concentration (EC50) is less than 2 µg/mL.
Turning to `COc1ccnc(C(=O)Nc2ccc3nc(Sc4ccccc4Cl)ccc3c2)c1O` [Example 26, N-(2-((2-chlorophenyl)thio)quinolin-6-yl)-3-hydroxy-4-methoxypicolinamide], the EC50 is less than 2 µg/mL.
As for `COc1ccnc(C(=O)Nc2ccc3nc(Oc4ccc(F)cc4)ccc3c2)c1O` [Example 2, N-(2-(4-fluorophenoxy)quinolin-6-yl)-3-hydroxy-4-methoxypicolinamide], the figure is less than 2 µg/mL; as for `COc1ccnc2c(=O)n(-c3ccc4nc(OC(C)C(C)C)ccc4c3)c(=S)oc12` (stereo not shown) [Example 39, 8-methoxy-3-(2-((3-methylbutan-2-yl)oxy)quinolin-6-yl)-2-thioxo-2,3-dihydro-4H-pyrido[2,3-e][1,3]oxazin-4-one], not below 20 µg/mL.
With `COc1ccnc2c(=O)n(-c3ccc4nc(N(C)c5cccnc5Cl)ccc4c3)c(=S)oc12` [Example 46, 3-(2-((2-chloropyridin-3-yl)(methyl)amino)quinolin-6-yl)-8-methoxy-2-thioxo-2,3-dihydro-4H-pyrido[2,3-e][1,3]oxazin-4-one] the figure was not below 20 µg/mL; with `COc1ccnc(C(=O)Nc2ccc3nc(Sc4cccnc4Cl)ccc3c2)c1OC(C)=O` [Example 35, 2-((2-((2-chloropyridin-3-yl)thio)quinolin-6-yl)carbamoyl)-4-methoxypyridin-3-yl acetate], 2 to 20 µg/mL; with `COc1ccnc(C(=O)Nc2ccc3nc(Oc4ccccc4Cl)ccc3c2)c1OC(C)=O` [Example 30, 2-((2-(2-chlorophenoxy)quinolin-6-yl)carbamoyl)-4-methoxypyridin-3-yl acetate], 2 to 20 µg/mL.
Regarding `COc1ccnc(C(=O)Nc2ccc3nc(N(C)c4ccccc4Cl)ccc3c2)c1OC(C)=O` [Example 32, 2-((2-((2-chlorophenyl)(methyl)amino)quinolin-6-yl)carbamoyl)-4-methoxypyridin-3-yl acetate], the EC50 was less than 2 µg/mL.
For `COc1ccnc(C(=O)Nc2ccc3nc(N(C)c4cccnc4Cl)ccc3c2)c1O` [Example 25, N-(2-((2-chloropyridin-3-yl)(methyl)amino)quinolin-6-yl)-3-hydroxy-4-methoxypicolinamide], the EC50 fell in the range of 2 to 20 µg/mL (≈ 4.59 to 45.9 µM).
For the compound `COc1ccnc(C(=O)Nc2ccc3cc(-c4ccccc4)ccc3n2)c1OC(C)=O` [Example 18, 4-methoxy-2-((6-phenylquinolin-2-yl)carbamoyl)pyridin-3-yl acetate], the concentration giving a half-maximal response (EC50) lay within 2 to 20 µg/mL.
For `COc1ccnc(C(=O)Nc2ccc3cc(Br)ccc3n2)c1O` [Example 15, N-(6-bromoquinolin-2-yl)-3-hydroxy-4-methoxypicolinamide], the EC50 lay in the range of 2 to 20 µg/mL (≈ 5.34 to 53.4 µM).
With `COc1ccnc(C(=O)Nc2ccc3nc(Oc4ccc(F)cc4)ccc3c2)c1OC(C)=O` [Example 19, 2-((2-(4-fluorophenoxy)quinolin-6-yl)carbamoyl)-4-methoxypyridin-3-yl acetate] the figure was less than 2 µg/mL.
As for `COc1ccnc2c(=O)n(-c3ccc4nc(Oc5ccccc5Cl)ccc4c3)c(=S)oc12` [Example 40, 3-(2-(2-chlorophenoxy)quinolin-6-yl)-8-methoxy-2-thioxo-2,3-dihydro-4H-pyrido[2,3-e][1,3]oxazin-4-one], the figure is less than 2 µg/mL.
With `COc1ccnc(C(=O)Nc2ccc3nc(Cl)ccc3c2)c1O` [Example 10, N-(2-chloroquinolin-6-yl)-3-hydroxy-4-methoxypicolinamide] the figure was not below 20 µg/mL.
On to `COc1ccnc(C(=O)Nc2ccc3nc(OCCC(C)C)ccc3c2)c1O` [Example 7, 3-hydroxy-N-(2-(isopentyloxy)quinolin-6-yl)-4-methoxypicolinamide], for which the EC50 was less than 2 µg/mL.
`CCC(C)Oc1ccc2cc(-n3c(=S)oc4c(OC)ccnc4c3=O)ccc2n1` (stereo not shown) [Example 38, 3-(2-(sec-butoxy)quinolin-6-yl)-8-methoxy-2-thioxo-2,3-dihydro-4H-pyrido[2,3-e][1,3]oxazin-4-one]: the EC50 lay within 2 to 20 µg/mL (≈ 4.88 to 48.8 µM).
With `COc1ccnc(C(=O)Nc2ccc3nc(OC(C)C(C)C)ccc3c2)c1O` (stereo not shown) [Example 6, 3-hydroxy-4-methoxy-N-(2-((3-methylbutan-2-yl)oxy)quinolin-6-yl)picolinamide], the EC50 is less than 2 µg/mL.
With `COc1ccnc(C(=O)Nc2ccc3cc(-c4ccccc4)ccc3n2)c1O` [Example 16, 3-hydroxy-4-methoxy-N-(6-phenylquinolin-2-yl)picolinamide] the figure was 2 to 20 µg/mL (≈ 5.39 to 53.9 µM); with `COc1ccnc(C(=O)Nc2ccc3nc(Oc4ccccc4Cl)ccc3c2)c1O` [Example 20, N-(2-(2-chlorophenoxy)quinolin-6-yl)-3-hydroxy-4-methoxypicolinamide], not below 20 µg/mL; with `COc1ccnc2c(=O)n(-c3ccc4nc(N(C)c5ccccc5Cl)ccc4c3)c(=S)oc12` [Example 42, 3-(2-((2-chlorophenyl)(methyl)amino)quinolin-6-yl)-8-methoxy-2-thioxo-2,3-dihydro-4H-pyrido[2,3-e][1,3]oxazin-4-one], 2 to 20 µg/mL (≈ 4.19 to 41.9 µM).
`COc1ccnc2c(=O)n(-c3ccc4nc(Sc5ccccc5Cl)ccc4c3)c(=S)oc12` [Example 43, 3-(2-((2-chlorophenyl)thio)quinolin-6-yl)-8-methoxy-2-thioxo-2,3-dihydro-4H-pyrido[2,3-e][1,3]oxazin-4-one]: the EC50 is not below 20 µg/mL.
For `COc1ccnc(C(=O)Nc2ccc3nc(Oc4cccnc4Cl)ccc3c2)c1OC(C)=O` [Example 36, 2-((2-((2-chloropyridin-3-yl)oxy)quinolin-6-yl)carbamoyl)-4-methoxypyridin-3-yl acetate], the EC50 is not below 20 µg/mL.
Regarding `COc1ccccc1Oc1ccc2cc(NC(=O)c3nccc(OC)c3O)ccc2n1` [Example 22, 3-hydroxy-4-methoxy-N-(2-(2-methoxyphenoxy)quinolin-6-yl)picolinamide], the EC50 is not below 20 µg/mL.
With `COc1ccnc(C(=O)Nc2ccc3nc(Sc4ccccc4Cl)ccc3c2)c1OC(C)=O` [Example 33, 2-((2-((2-chlorophenyl)thio)quinolin-6-yl)carbamoyl)-4-methoxypyridin-3-yl acetate] the figure was not below 20 µg/mL; with `COc1ccnc(C(=O)Nc2ccc3nc(N(C)c4ccc(F)cc4)ccc3c2)c1O` [Example 8, N-(2-((4-fluorophenyl)(methyl)amino)quinolin-6-yl)-3-hydroxy-4-methoxypicolinamide], less than 2 µg/mL; with `COc1ccnc(C(=O)Nc2ccc3cc(Br)ccc3n2)c1OC(C)=O` [Example 17, 2-((6-bromoquinolin-2-yl)carbamoyl)-4-methoxypyridin-3-yl acetate], 2 to 20 µg/mL.
For the compound `CCOc1ccc2cc(NC(=O)c3nccc(OC)c3O)ccc2n1` [Example 1, N-(2-ethoxyquinolin-6-yl)-3-hydroxy-4-methoxypicolinamide], the EC50 fell in the range of 2 to 20 µg/mL (≈ 5.89 to 58.9 µM).
With `CCCOc1ccc2cc(NC(=O)c3nccc(OC)c3O)ccc2n1` [Example 3, 3-hydroxy-4-methoxy-N-(2-propoxyquinolin-6-yl)picolinamide] the figure was less than 2 µg/mL; with `COc1ccnc(C(=O)Nc2ccc3ncc(Cc4ccccc4)cc3c2)c1O` [Example 13, N-(3-benzylquinolin-6-yl)-3-hydroxy-4-methoxypicolinamide], not below 20 µg/mL; with `COc1ccccc1Oc1ccc2cc(-n3c(=S)oc4c(OC)ccnc4c3=O)ccc2n1` [Example 41, 8-methoxy-3-(2-(2-methoxyphenoxy)quinolin-6-yl)-2-thioxo-2,3-dihydro-4H-pyrido[2,3-e][1,3]oxazin-4-one], not below 20 µg/mL.
`CCCCCc1cc(Oc2ccc(F)cc2)nc2ccc(NC(=O)c3nccc(OC)c3OC(C)=O)cc12` [Example 31, 2-((2-(4-fluorophenoxy)-4-pentylquinolin-6-yl)carbamoyl)-4-methoxypyridin-3-yl acetate]: the EC50 was not below 20 µg/mL.
Turning to `COc1ccnc(C(=O)Nc2ccc3nc(N(C)c4cccnc4Cl)ccc3c2)c1OC(C)=O` [Example 34, 2-((2-((2-chloropyridin-3-yl)(methyl)amino)quinolin-6-yl)carbamoyl)-4-methoxypyridin-3-yl acetate], the half-maximal effective concentration (EC50) was not below 20 µg/mL.
For the compound `COc1ccnc(C(=O)Nc2ccc3nc(Sc4cccnc4Cl)ccc3c2)c1O` [Example 28, N-(2-((2-chloropyridin-3-yl)thio)quinolin-6-yl)-3-hydroxy-4-methoxypicolinamide], the EC50 is not below 20 µg/mL.
As for `COc1ccnc2c(=O)n(-c3ccc4nc(Oc5cccnc5Cl)ccc4c3)c(=S)oc12` [Example 44, 3-(2-((2-chloropyridin-3-yl)oxy)quinolin-6-yl)-8-methoxy-2-thioxo-2,3-dihydro-4H-pyrido[2,3-e][1,3]oxazin-4-one], the EC50 was not below 20 µg/mL.

The values above are taken from patent US12667101B2, “Picolinamide derivatives useful as agricultural fungicides” (GLOBACHEM NV, priority 2019, dated 2026).
